Laboratory results taken from the supplement of paper PMC4862054.

The molecules below were run on HDQ-P1 (assay: normalised response (% of control), CellTox Green; higher = less cell death (100 = DMSO, 0 = benzethonium chloride kill control)). Conditions: incubation time: 72 h.
Method in brief: (§1)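 A 20 µl suspension of breast cancer cells was seeded into each well of 384-well plates containing compound at 5 concentrations in 10-fold steps over a compound-specific 10,000-fold range. After 72 h incubation, CellTox Green fluorescence (485/520 nm) was read first, and CellTiter-Glo luminescence was read after 10 min at room temperature. Each plate was normalised against 0.1 % DMSO (100) and a positive kill control (0), and each value is the normalised signal at one concentration.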
`COc1cc2ncnc(Nc3ccc(F)c(Cl)c3)c2cc1NC(=O)/C=C/CN1CCCCC1` [Dacomitinib] (1000 nM) gave a normalised response of 94.1%.

What follows are molecules tested on MFM-223 in the same assay as above. Conditions: incubation time: 72 h.
Method in brief: as §1
`CS(=O)(=O)c1ccc(C2=C(c3ccccc3)C(=O)OC2)cc1` [Rofecoxib] (10000 nM) gave a normalised response of 68.2%. For `CCC(C)(C)C(=O)O[C@H]1C[C@@H](C)C=C2C=C[C@H](C)[C@H](CC[C@@H]3C[C@@H](O)CC(=O)O3)[C@H]21` [Simvastatin] (10000 nM), the normalised response was 104%. Molecule `N#CCNC(=O)c1ccc(-c2ccnc(Nc3ccc(N4CCOCC4)cc3)n2)cc1` [Momelotinib] (10000 nM) has a normalised response of 97.5%. With `CC(=O)Nc1ccc(C(=O)Nc2ccccc2N)cc1` [Tacedinaline] (1000 nM) the normalised response was 105%. `O=C(O)c1ccc(-c2c[nH]c3ncc(-c4ccccc4)cc23)cc1C1CCCC1` (10000 nM) showed a normalised response of 66.2%. For `COc1cc2ncnc(Nc3ccc(F)c(Cl)c3)c2cc1NC(=O)/C=C/CN1CCCCC1` [Dacomitinib] (1000 nM), the normalised response was 99.5%.

What follows are molecules tested on Hs578T in the same assay as above. Conditions: incubation time: 72 h.
Method in brief: as §1
`CS(=O)(=O)c1ccc(C2=C(c3ccccc3)C(=O)OC2)cc1` [Rofecoxib] (10000 nM) gave a normalised response of 128%. `CC(C)Cn1cnc2c(N)nc3ccccc3c21` [Imiquimod] (2500 nM) showed a normalised response of 130%. For `N#CCNC(=O)c1ccc(-c2ccnc(Nc3ccc(N4CCOCC4)cc3)n2)cc1` [Momelotinib] (10000 nM), the normalised response was 87%. With `CC(=O)Nc1ccc(C(=O)Nc2ccccc2N)cc1` [Tacedinaline] (1000 nM) the normalised response was 99.3%. With `O=C(O)c1ccc(-c2c[nH]c3ncc(-c4ccccc4)cc23)cc1C1CCCC1` (10000 nM) the normalised response was 117%. `COc1cc2ncnc(Nc3ccc(F)c(Cl)c3)c2cc1NC(=O)/C=C/CN1CCCCC1` [Dacomitinib] (1000 nM) was tested, and the normalised response was 115%.

These molecules were tested on HCC1937 in the same assay as above. Conditions: incubation time: 72 h.
Method in brief: as §1
Molecule `CCC(C)(C)C(=O)O[C@H]1C[C@@H](C)C=C2C=C[C@H](C)[C@H](CC[C@@H]3C[C@@H](O)CC(=O)O3)[C@H]21` [Simvastatin] (10000 nM) has a normalised response of 95.6%. With `CC(C)Cn1cnc2c(N)nc3ccccc3c21` [Imiquimod] (2500 nM) the normalised response was 106%. Work on `N#CCNC(=O)c1ccc(-c2ccnc(Nc3ccc(N4CCOCC4)cc3)n2)cc1` [Momelotinib] (10000 nM) yielded a normalised response of 102%. `CC(=O)Nc1ccc(C(=O)Nc2ccccc2N)cc1` [Tacedinaline] (1000 nM) showed a normalised response of 83.6%.

These molecules were tested on CAL-51 in the same assay as above. Conditions: incubation time: 72 h.
Method in brief: as §1
For `CS(=O)(=O)c1ccc(C2=C(c3ccccc3)C(=O)OC2)cc1` [Rofecoxib] (10000 nM), the normalised response was 98.7%. For `CCC(C)(C)C(=O)O[C@H]1C[C@@H](C)C=C2C=C[C@H](C)[C@H](CC[C@@H]3C[C@@H](O)CC(=O)O3)[C@H]21` [Simvastatin] (10000 nM), the normalised response was 46.8%. Work on `CC(C)Cn1cnc2c(N)nc3ccccc3c21` [Imiquimod] (2500 nM) yielded a normalised response of 106%. In the case of `N#CCNC(=O)c1ccc(-c2ccnc(Nc3ccc(N4CCOCC4)cc3)n2)cc1` [Momelotinib] (10000 nM), the normalised response is reported as 85.1%. With `CC(=O)Nc1ccc(C(=O)Nc2ccccc2N)cc1` [Tacedinaline] (1000 nM) the normalised response was 96.2%. For `O=C(O)c1ccc(-c2c[nH]c3ncc(-c4ccccc4)cc23)cc1C1CCCC1` (10000 nM), the normalised response was 63.4%. `COc1cc2ncnc(Nc3ccc(F)c(Cl)c3)c2cc1NC(=O)/C=C/CN1CCCCC1` [Dacomitinib] (1000 nM) showed a normalised response of 109%.

What follows are molecules tested on BT-549 in the same assay as above. Conditions: incubation time: 72 h.
Method in brief: as §1
Work on `CS(=O)(=O)c1ccc(C2=C(c3ccccc3)C(=O)OC2)cc1` [Rofecoxib] (10000 nM) yielded a normalised response of 102%. `CCC(C)(C)C(=O)O[C@H]1C[C@@H](C)C=C2C=C[C@H](C)[C@H](CC[C@@H]3C[C@@H](O)CC(=O)O3)[C@H]21` [Simvastatin] (10000 nM) was tested, and the normalised response was 98.6%. `CC(C)Cn1cnc2c(N)nc3ccccc3c21` [Imiquimod] (2500 nM) gave a normalised response of 72.1%. `N#CCNC(=O)c1ccc(-c2ccnc(Nc3ccc(N4CCOCC4)cc3)n2)cc1` [Momelotinib] (10000 nM) showed a normalised response of 31.3%. With `CC(=O)Nc1ccc(C(=O)Nc2ccccc2N)cc1` [Tacedinaline] (1000 nM) the normalised response was 114%. `O=C(O)c1ccc(-c2c[nH]c3ncc(-c4ccccc4)cc23)cc1C1CCCC1` (10000 nM) was tested, and the normalised response was 99.3%. Molecule `COc1cc2ncnc(Nc3ccc(F)c(Cl)c3)c2cc1NC(=O)/C=C/CN1CCCCC1` [Dacomitinib] (1000 nM) has a normalised response of 74.8%.

What follows are molecules tested on HCC1143 in the same assay as above. Conditions: incubation time: 72 h.
Method in brief: as §1
`CS(=O)(=O)c1ccc(C2=C(c3ccccc3)C(=O)OC2)cc1` [Rofecoxib] (10000 nM) showed a normalised response of 114%. For `CC(C)Cn1cnc2c(N)nc3ccccc3c21` [Imiquimod] (2500 nM), the normalised response was 104%. Molecule `N#CCNC(=O)c1ccc(-c2ccnc(Nc3ccc(N4CCOCC4)cc3)n2)cc1` [Momelotinib] (10000 nM) has a normalised response of 98%. `CC(=O)Nc1ccc(C(=O)Nc2ccccc2N)cc1` [Tacedinaline] (1000 nM) was tested, and the normalised response was 75.3%. `O=C(O)c1ccc(-c2c[nH]c3ncc(-c4ccccc4)cc23)cc1C1CCCC1` (10000 nM) showed a normalised response of 117%. `COc1cc2ncnc(Nc3ccc(F)c(Cl)c3)c2cc1NC(=O)/C=C/CN1CCCCC1` [Dacomitinib] (1000 nM) was tested, and the normalised response was 75.7%.

Each molecule was assayed on CAL-148 in the same assay as above. Conditions: incubation time: 72 h.
Method in brief: as §1
Work on `CS(=O)(=O)c1ccc(C2=C(c3ccccc3)C(=O)OC2)cc1` [Rofecoxib] (10000 nM) yielded a normalised response of 98.8%. For `CCC(C)(C)C(=O)O[C@H]1C[C@@H](C)C=C2C=C[C@H](C)[C@H](CC[C@@H]3C[C@@H](O)CC(=O)O3)[C@H]21` [Simvastatin] (10000 nM), the normalised response was 104%. `CC(C)Cn1cnc2c(N)nc3ccccc3c21` [Imiquimod] (2500 nM) was tested, and the normalised response was 100%. For `N#CCNC(=O)c1ccc(-c2ccnc(Nc3ccc(N4CCOCC4)cc3)n2)cc1` [Momelotinib] (10000 nM), the normalised response was 100%. With `CC(=O)Nc1ccc(C(=O)Nc2ccccc2N)cc1` [Tacedinaline] (1000 nM) the normalised response was 97.9%. For `O=C(O)c1ccc(-c2c[nH]c3ncc(-c4ccccc4)cc23)cc1C1CCCC1` (10000 nM), the normalised response was 91.6%. `COc1cc2ncnc(Nc3ccc(F)c(Cl)c3)c2cc1NC(=O)/C=C/CN1CCCCC1` [Dacomitinib] (1000 nM) showed a normalised response of 96.7%.

What follows are molecules tested on CAL-120 in the same assay as above. Conditions: incubation time: 72 h.
Method in brief: as §1
`CS(=O)(=O)c1ccc(C2=C(c3ccccc3)C(=O)OC2)cc1` [Rofecoxib] (10000 nM) was tested, and the normalised response was 105%. Molecule `CCC(C)(C)C(=O)O[C@H]1C[C@@H](C)C=C2C=C[C@H](C)[C@H](CC[C@@H]3C[C@@H](O)CC(=O)O3)[C@H]21` [Simvastatin] (10000 nM) has a normalised response of 77.4%. Work on `CC(C)Cn1cnc2c(N)nc3ccccc3c21` [Imiquimod] (2500 nM) yielded a normalised response of 96.6%. `N#CCNC(=O)c1ccc(-c2ccnc(Nc3ccc(N4CCOCC4)cc3)n2)cc1` [Momelotinib] (10000 nM) gave a normalised response of 97.4%. `CC(=O)Nc1ccc(C(=O)Nc2ccccc2N)cc1` [Tacedinaline] (1000 nM) showed a normalised response of 101%. `O=C(O)c1ccc(-c2c[nH]c3ncc(-c4ccccc4)cc23)cc1C1CCCC1` (10000 nM) gave a normalised response of 99.2%. Molecule `COc1cc2ncnc(Nc3ccc(F)c(Cl)c3)c2cc1NC(=O)/C=C/CN1CCCCC1` [Dacomitinib] (1000 nM) has a normalised response of 98.7%.

What follows are molecules tested on MDA-MB-231 (assay: normalised response (% of control), CellTiter-Glo; higher = more viable cells (100 = DMSO, 0 = benzethonium chloride kill control)). Conditions: incubation time: 72 h.
Experimental: (§2)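 DSRT, 72 h incubation, CellTox Green / CellTiter-Glo readout. Signal is normalised to DMSO and benzethonium chloride controls. Value is the normalised response at the highest dose.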
With `CS(=O)(=O)c1ccc(C2=C(c3ccccc3)C(=O)OC2)cc1` [Rofecoxib] (10000 nM) the normalised response was 100%. `CCC(C)(C)C(=O)O[C@H]1C[C@@H](C)C=C2C=C[C@H](C)[C@H](CC[C@@H]3C[C@@H](O)CC(=O)O3)[C@H]21` [Simvastatin] (10000 nM) was tested, and the normalised response was 30%. In the case of `CC(C)Cn1cnc2c(N)nc3ccccc3c21` [Imiquimod] (2500 nM), the normalised response is reported as 98.2%. For `N#CCNC(=O)c1ccc(-c2ccnc(Nc3ccc(N4CCOCC4)cc3)n2)cc1` [Momelotinib] (10000 nM), the normalised response was 46.8%. Work on `CC(=O)Nc1ccc(C(=O)Nc2ccccc2N)cc1` [Tacedinaline] (1000 nM) yielded a normalised response of 95.7%. Work on `O=C(O)c1ccc(-c2c[nH]c3ncc(-c4ccccc4)cc23)cc1C1CCCC1` (10000 nM) yielded a normalised response of 94.1%. `COc1cc2ncnc(Nc3ccc(F)c(Cl)c3)c2cc1NC(=O)/C=C/CN1CCCCC1` [Dacomitinib] (1000 nM) showed a normalised response of 84.5%.

The molecules below were run on MDA-MB-436 in the same assay as above. Conditions: incubation time: 72 h.
Experimental: as §2
`CS(=O)(=O)c1ccc(C2=C(c3ccccc3)C(=O)OC2)cc1` [Rofecoxib] (10000 nM) gave a normalised response of 111%. With `CCC(C)(C)C(=O)O[C@H]1C[C@@H](C)C=C2C=C[C@H](C)[C@H](CC[C@@H]3C[C@@H](O)CC(=O)O3)[C@H]21` [Simvastatin] (10000 nM) the normalised response was 84.9%. `CC(C)Cn1cnc2c(N)nc3ccccc3c21` [Imiquimod] (2500 nM) showed a normalised response of 106%.
